{"source": "patent US20080131879A1", "about": "“Detection of Subjects at Risk For Chd By a Genotype Evaluation Associated With Serum Plant Sterols Enabling Individualized (Drug) Treatment on Demand” (University Van Maastricht, priority 2004, published 2008)", "origin": "cited, not measured here", "conditions": "intestinal absorption from diet"}
{"smiles": "CC(C)[C@H](C)CC[C@@H](C)[C@H]1CC[C@H]2[C@@H]3CC=C4C[C@@H](O)CC[C@]4(C)[C@H]3CC[C@]12C", "note": "[campesterol]", "values": [{"measurement": "Absorption", "value": 1.89, "unit": "%"}]}
{"smiles": "CC[C@H](CC[C@@H](C)[C@H]1CC[C@H]2[C@@H]3CC=C4C[C@@H](O)CC[C@]4(C)[C@H]3CC[C@]12C)C(C)C", "note": "[sitosterol]", "values": [{"measurement": "Absorption", "value": 0.51, "unit": "%"}]}
